These results are taken from patent publication US20230256110A1, “COMBINATION OF ANTIBODY-DRUG CONJUGATE AND ATM INHIBITOR” (AstraZeneca UK Limited, priority 2020, published 2023).

Assay [1] relates to KPL4 cell line. Put plainly: High-throughput combination screen, 7-day cell titer-glo cell viability assay. It is filed as cell-based. As to conditions: within the selected concentration range. The text has this: (§1) In addition, trastuzumab and exatecan (DNA topoisomerase I inhibitor) were also screened in parallel with AZD1390.
(§2) • Loewe Dose Additivity predicts the expected response if the two compounds act on the same molecular target by means of the same mechanism. It calculates additivity based on the assumption of zero interaction between the compounds and it is independent from the nature of the dose-response relationship. • HSA (Highest Single Agent) [Berenbaum 1989] quantifies the higher of the two single compound effects at their corresponding concentrations. The combined effect is compared with the effect of each single agent at the concentration used in the combination. Excess over the highest single agent effect indicates cooperativity. […] The predicted values are determined by the chosen model. Differences between the predicted and observed values may indicate synergy or antagonism, and are shown in the Excess Matrix. Excess Matrix values are summarized by the combination scores Excess Volume and Synergy Score.
In general terms: In ATP-based viability assays light output follows the ATP content of the culture.

The test system of assay [2] is MDA-MB-468 cell line. The description is as above. The conditions noted are these: within the selected concentration range. It is filed as cell-based.
Source text: as §1, §2

For assay [3], the system named is NCI-N87 cell line. The description is as above. It is filed as cell-based. The conditions noted are these: within the selected concentration range.
Source text: as §1, §2

The subject of assay [4] is T47D cell line. Described as above. It is filed as cell-based. The conditions noted are these: within the selected concentration range.
Source text: as §1, §2

Assay [5] has as its system JIMT-1 cell line. Description: Growth inhibition by total cell (nuclear) count, 96-well imaging. Format: cell-based. The conditions noted are these: Homo sapiens; monotherapy; JIMT-1, breast, HER2 Expressed; 4 to 8 days. The procedure: (§3) Cells grown in their respective conditions were plated in 96-well plates at optimal density to allow linear proliferation for the duration of the assay (4 to 8 days; duration of treatment is dependent on the growth rate of each cell line). Immediately after plating, the cells were dosed with the indicated compounds for a total volume of 200 μL/well and placed in the incubator. Combinations were conducted as a 6×8 concentration response matrix for each combination. At the endpoint, the cells were fixed in 2% PFA for 20 minutes at room temperature. In order to obtain the number of cells at the start of treatment, one additional plate was used for each experiment and fixed after cells attached. The cells were then permeabilised in 0.5% Triton-X100 in PBS for 10 minutes. After a PBS wash, the cells were blocked in 5% FBS in PBS 1 h at RT and incubated with primary antibodies in 5% FBS+0.05% triton overnight at 4° C. After 3 washes in PBS cells were incubated with secondary antibodies in 5% FBS+0.05% triton with Hoechst33258 for 1 h at room temperature. After 3 washes in PBS, the cells were scanned with a Cellinsight instrument with a 10×objective and 9 fields/well. Images were analysed using Columbus for cell count based on nuclear Hoechst staining and nuclear intensity of other biomarkers investigated. The total cell count/well was used to calculate the relative growth in each well compared to solvent control. […] The mean/well of the sum of the nuclear intensity of the IF biomarkers was also expressed relative to solvent control.

The subject of assay [6] is KPL4 cell line. The description is as above. Format: cell-based. As to conditions: monotherapy; KPL4, breast, HER2 High; 4 to 8 days. How it is done: as §3
The subject of assay [7] is MDA-MB-468 cell line. Described as above. Format: cell-based. The conditions noted are these: Homo sapiens; monotherapy; MDA-MB-468, breast, HER2 Low; 4 to 8 days. The procedure:
as §3

Assay [8] deals with NCI-N87 cell line. Described as above. It is filed as cell-based. The conditions noted are these: Homo sapiens; monotherapy; NCI-N87, gastric, HER2 High; 4 to 8 days. The procedure:
as §3

Assay [9] deals with SK-OV-3 cell line. The assay is described as above. It is filed as cell-based. As to conditions: Homo sapiens; monotherapy; SK-OV-3, ovarian, HER2 Moderate; 4 to 8 days. How it is done:
as §3

The test system of assay [10] is NCI-N87 tumours implanted subcutaneously. Put plainly: NCI-N87 xenograft antitumor test in vivo. Set-up: species or system Female Nude mice. As to conditions: AZD1390 10 mg/kg PO QD × 28; day 40 post treatment.
Assay [11] relates to ATM signaling. Description: Inhibition of ATM signaling, antibody blots of whole-cell extracts. Format: cell-based. How it is done:
Gastric cancer NCI-N87 and breast carcinoma KPL4 cell lines were cultured in RPMI 1640 supplemented with 10% FCS in a humidified incubator at 37° C. with 5% CO2. Cells were plated in 6-well plates at optimal density to allow linear proliferation for the duration of the assay. […] 7 h, 24 h or 48 h after dosing, whole-cell extracts were obtained by lysis in 50 mM Tris-HCl pH 7.5, 2% SDS containing protease and phosphatase inhibitors. Lysates were boiled for 5 minutes at 95° C. Protein concentration was measured using a Nanodrop at […] and 50 μg of lysate were loaded in 4-12% Bis Tris gels. Proteins were transferred using iblot2. Primary antibodies (see Table 7) were incubated overnight at 4° C. in 3% milk TBS-tween 0.05% and HRP-conjugated secondary antibodies for 1 h at room temperature. Blots were imaged using a G-box.

Assay [12] relates to DU145 cell line. Put plainly: Growth inhibition by total cell (nuclear) count, 96-well imaging. Format: cell-based. The conditions noted are these: Homo sapiens, DU-145; monotherapy; DU145, prostate, HER2 Low; 4 to 8 days. How it is done: as §3
In assay [13] the test system is DU145-SLFN11 KO (CRISPR-Cas9 gene knockout of SLFN11). The description is as above. It is filed as cell-based. As to conditions: monotherapy, prostate, HER2 Low, 4 to 8 days. The procedure:
as §3

The subject of assay [14] is KAP1 pSer824, γH2AX. Description: Immunofluorescence biomarkers of ATM activation and DNA damage in KPL4 cells. Format: cell-based. The conditions noted are these: high-HER2 KPL4. How it is done:
Cells grown in their respective conditions were plated in 96-well plates at optimal density to allow linear proliferation for the duration of the assay (4 to 8 days; duration of treatment is dependent on the growth rate of each cell line). Immediately after plating, the cells were dosed with the indicated compounds for a total volume of 200 μL/well and placed in the incubator. Combinations were conducted as a 6×8 concentration response matrix for each combination. At the endpoint, the cells were fixed in 2% PFA for 20 minutes at room temperature. In order to obtain the number of cells at the start of treatment, one additional plate was used for each experiment and fixed after cells attached. The cells were then permeabilised in 0.5% Triton-X100 in PBS for 10 minutes. After a PBS wash, the cells were blocked in 5% FBS in PBS 1 h at RT and incubated with primary antibodies in 5% FBS+0.05% triton overnight at 4° C. After 3 washes in PBS cells were incubated with secondary antibodies in 5% FBS+0.05% triton with Hoechst33258 for 1 h at room temperature. After 3 washes in PBS, the cells were scanned with a Cellinsight instrument with a 10×objective and 9 fields/well. Images were analysed using Columbus for cell count based on nuclear Hoechst staining and nuclear intensity of other biomarkers investigated. […]

Where [15] appears, read: NCI-N87 and KPL4, AZD1390 at 100 nM combined with DS-8201 or exatecan mesylate.

As usually defined, the GI50 is the concentration that inhibits growth by half.

The structures appear in SMILES notation. “Also recorded” adds a separate entry of the source. Where a name gives a salt, the structure may show the parent alone. A value given as a limit tells only on which side of the number the result lay.

With `CC(C)n1c(=O)n(C)c2cnc3cc(F)c(-c4ccc(OCCCN5CCCCC5)nc4)cc3c21` [AZD1390, 7-fluoro-1-isopropyl-3-methyl-8-[6-[3-(1-piperidyl)propoxy]-3-pyridyl]imidazo[4,5-c]quinolin-2-one], the “Single agent activity (cell viability)” value in assay [1], in assay [2], in assay [3] and in [4] was “not active” each time. Further, the 50% growth inhibitory concentration (GI50) in [5], in assay [6], in assay [7], in assay [8] and in assay [9] was more than 100 nM each time. The “Best response % TGI/regression” value in [10] is 37%. For the same molecule, the “DNA damage (pRPA, gH2AX)” value in assay [11] (setting [15]) is reported as “exacerbating the DNA damage”. In addition, the “activation of pATM, pChk2, and pKAP1” value in assay [11] (setting [15]) was “inhibited the activation of pATM, pChk2, and pKAP1; also recorded: inhibits DS-8201-induced ATM signaling”. For the same molecule, in assay [11] (setting [15]), the “cell death (cCasp3)” value was “increased cell death”.

With `CC[C@@]1(O)C(=O)OCc2c1cc1n(c2=O)Cc2c-1nc1cc(F)c(C)c3c1c2[C@@H](N)CC3` [Exatecan mesylate, (1S,9S)-1-amino-9-ethyl-5-fluoro-1,2,3,9,12,15-hexahydro-9-hydroxy-4-methyl-10H,13H-benzo[de]pyrano[3′,4′:6,7]indolizino[1,2-b]quinolin-10,13-dione, reference compound], the GI50 in assay [12] came out at 0.564 nM; in [13], 0.45 nM; in [5], 0.745 nM; in [6], 1.18 nM; in assay [7], 0.162 nM; in assay [8], 0.503 nM. For the same molecule, the GI50 in [9] was 0.914 nM. In addition, in assay [11] (Her2-high NCI-N87 and KPL4, DS-8201 at 30 μg/mL or exatecan mesylate alone), the “activation of the ATM pathway (pATM-S1981, pChk2-T68, pKap1-S824)” value is recorded as “induced activation of the ATM pathway”. Also, the “biomarkers of ATM (KAP1 pSer824) activation and DNA strand breaks (yH2AX)” value in assay [14] is reported as “induced in a concentration dependent manner”.
